Experimental findings from BindingDB's records for doi:10.3109/14756366.2011.614607 (Ondokuz Mayis University, 2012) are described below.

What all share (assay): CA Activity Assay
What all share (conditions): pH 7.4; 25 °C

The target in one experiment is Carbonic anhydrase 6 (Homo sapiens, UniProt P23280). The method, then: (§1) The enzymatic reaction, in a total volume of 3.0 mL, contained 1.4 mL 0.05M Tris-SO4 buffer (pH 7.4), 1mL 3 mM 4-nitrophenylacetate, 0.5 mL H2O and 0.1mL enzyme solution. A reference measurement was obtained by preparing the same cuvette without enzyme solution. The inhibitory effects of the sulphonamide derivatives were examined. All compounds were tested in triplicate at each concentration used. Different concentrations of the compounds were used.

In the next experiment the target is Carbonic anhydrase 1 (Homo sapiens, UniProt P00915). As for the experimental part: as §1
The next experiment has as its target Carbonic anhydrase 2 (Homo sapiens, UniProt P00918). The method, then: as §1

Sequence of Carbonic anhydrase 1 (P00915 whole entry): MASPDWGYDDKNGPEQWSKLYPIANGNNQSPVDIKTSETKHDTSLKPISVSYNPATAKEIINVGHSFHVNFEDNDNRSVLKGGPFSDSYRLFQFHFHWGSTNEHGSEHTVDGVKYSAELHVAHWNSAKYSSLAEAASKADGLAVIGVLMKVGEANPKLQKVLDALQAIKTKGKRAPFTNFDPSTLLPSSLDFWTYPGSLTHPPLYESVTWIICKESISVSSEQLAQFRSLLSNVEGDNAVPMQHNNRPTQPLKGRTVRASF
Sequence of Carbonic anhydrase 6 (P23280 whole entry): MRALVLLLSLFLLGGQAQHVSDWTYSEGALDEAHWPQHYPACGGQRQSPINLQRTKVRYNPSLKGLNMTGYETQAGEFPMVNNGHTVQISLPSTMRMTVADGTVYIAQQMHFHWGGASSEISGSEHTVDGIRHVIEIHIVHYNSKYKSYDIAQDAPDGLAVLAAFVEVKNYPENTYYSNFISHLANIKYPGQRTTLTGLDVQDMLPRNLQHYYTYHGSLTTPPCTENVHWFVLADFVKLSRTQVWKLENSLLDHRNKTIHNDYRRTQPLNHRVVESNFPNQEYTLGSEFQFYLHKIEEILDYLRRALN

A word on the Ki: it is the dissociation constant of the complex between target and ligand, obtained from inhibition or displacement. A higher Ki goes with weaker binding. `Nc1ccc(S(N)(=O)=O)cc1` [aromatic sulfonamide compound 5] gave an inhibitory constant (Ki) on Carbonic anhydrase 6 of 1.21 µM.

With `CCOC1Oc2ccccc2C(=O)/C1=C\Nc1ccc(S(N)(=O)=O)cc1` (centres undefined) [hCA inhibitor, 1], the Ki at Carbonic anhydrase 6 is 0.943 µM; on Carbonic anhydrase 1, 13.7 µM; on Carbonic anhydrase 2 it was 0.228 µM.

`CCOC1Oc2c(Br)cc(Br)cc2C(=O)/C1=C\Nc1ccc(S(N)(=O)=O)cc1` (centres undefined) [hCA inhibitor, 4]: the inhibitory constant (Ki) on Carbonic anhydrase 6 turned out to be 4.28 µM; on Carbonic anhydrase 1, 71.2 µM; at Carbonic anhydrase 2, 1.86 µM.

In turn, `NCc1ccc(S(N)(=O)=O)cc1` [aromatic sulfonamide compound 6] returned a Ki at Carbonic anhydrase 6 of 1.01 µM.

Regarding `Cc1ccc(S(N)(=O)=O)cc1`, the values for the Ki at Carbonic anhydrase 6 and on Carbonic anhydrase 1 were 21.2 µM and 118 µM, respectively.

Regarding `NS(=O)(=O)c1ccccc1`, the Ki on Carbonic anhydrase 6 worked out at 4.11 µM.

As for `CCOC1Oc2c(Br)cccc2C(=O)/C1=C\Nc1ccc(S(N)(=O)=O)cc1` (centres undefined) [hCA inhibitor, 3], the inhibition constant (Ki) at Carbonic anhydrase 6 worked out at 2.24 µM; at Carbonic anhydrase 1, 48.1 µM; at Carbonic anhydrase 2 it was 1.13 µM.
